Experiments:
Format in all cases: in vivo
ApoE knockout mice [1] = assay: Plasma total cholesterol level in ApoE knockout mice with primary hyperlipidemia; conditions: male ApoE knockout mice, 100 mg/kg orally twice a day for 12 weeks; mean±standard error; control group 641.8±23.0
Description: (§1) Home breeding male ApoE knockout mice, (C57BL/6J-ApoE<tmlUnc>, Jackson Labo™) were bred under common condition, 8 weeks old, were used for test.
(§2) The compound 1 (Example 32, WO98/54153) and control drug, CI-1011 (Example 5, WO 94/26702), were synthesized according to methods described in each publication. The compound 1 and CI-1011 were dissolved (the compound 1) or suspended (CI-1011) in aqueous solution of 0.5% methylcellulose (MC). The solution or suspension was prepared to be a dose of 100 mg/kg and a volume for administration of 0.1 mL/10 g body weight. The control group (no drug administered group) received the solvent, aqueous solution of 0.5% methylcellulose (MC). Prepared drug solution and suspension were administered twice a day, orally, for continuing to 12 weeks (up to 20 weeks old) (total 3 groups, each 15 animal).
After ending the final administration, mice were fasted. In the next morning, mice were laparotomized under pentobarbital sodium anesthesia to expose abdominal vein and collected blood sample 1 mL. The collected blood was centrifuged at 3000 rpm for 15 minutes to collect the plasma. Plasma total cholesterol level was assayed by using cholesterol E-test Wako (cholesterol oxidase DAOS method).
Obtained results are shown in mean±standard error. Test of significance between the control group and the drug-administered group is performed by Dunnett's test.

ApoE knockout mice [2] = assay: Sirius Red staining of collagen in aortic sinus plaques; conditions: male ApoE knockout mice, 100 mg/kg orally twice a day for 12 weeks; compared with control group
Description: as §1
as §2, with “Prepared drug solution and suspension were administered twice a day, orally, for continuing to 12 weeks (up to 20 weeks old) (total 3 groups, each 15 animal).” left out
(§3) After collecting the blood, animals were undergone thoracotomy and 20-G injection needle was punctured into the cardiac apex. […] Using the specimens of Victoria blue-hematoxylin and eosin staining, the internal elastic layer was specified by observation of optical microscope, and the cross-sectional area of the plaques was analyzed (Win ROOF, Mitsuya Shoji K.K.). Similarly, the area of macrophages was measured by using the specimens of macrophage immunohistochemical staining, and a ratio in total area of the plaques (the occupancy rate of macrophages) was calculated. […]

ApoE knockout mice [3] = assay: Cross-sectional area of the plaques in aortic sinus, Victoria blue-hematoxylin and eosin staining; conditions: male ApoE knockout mice, 100 mg/kg orally twice a day for 12 weeks, mean±standard error, control group 0.23±0.03
Description: as §1
as §2, with “Prepared drug solution and suspension were administered twice a day, orally, for continuing to 12 weeks (up to 20 weeks old) (total 3 groups, each 15 animal).” left out
as §3

ApoE knockout mice [4] = assay: Azan staining of aortic sinus plaques; conditions: male ApoE knockout mice, 100 mg/kg orally twice a day for 12 weeks; compared with control group
Description: as §1
as §2, with “Prepared drug solution and suspension were administered twice a day, orally, for continuing to 12 weeks (up to 20 weeks old) (total 3 groups, each 15 animal).” left out
as §3

ApoE knockout mice [5] = assay: Macrophage immunohistochemical staining (anti-CD11b antibody) of aortic sinus plaques; conditions: male ApoE knockout mice, 100 mg/kg orally twice a day for 12 weeks; compared with control group
Description: as §1
as §2, with “Prepared drug solution and suspension were administered twice a day, orally, for continuing to 12 weeks (up to 20 weeks old) (total 3 groups, each 15 animal).” left out
as §3

Row | Compound | plasma total cholesterol level (ApoE knockout mice [1]) [mg/dL] | Sirius Red staining, collagen fibers (observation) (ApoE knockout mice [2]) | cross-sectional area of the plaques (ApoE knockout mice [3]) [mm^2] | Azan staining, composition of the plaques (observation) (ApoE knockout mice [4]) | macrophage immunohistochemical staining (observation) (ApoE knockout mice [5])
1 | CSc1cc(C)nc(SC)c1NC(=O)CN1CCN(CCSc2nc3ccccc3[nH]2)CC1 [compound 1, 2-[4-[2-(benzimidazol-2-ylthio)ethyl]piperazin-1-yl]-N-[2,4-bis(methylthio)-6-methyl-3-pyridyl]acetamide] | 535.0 ± 22.8 | compactly arranged collagen fibers were observed in whole plaques | 0.22±0.03 | the plaques consisted of small area of cellular components and large numbers of surrounding extracellular matrix | the macrophages were occasionally observed
2 | CC(C)c1cc(C(C)C)c(CC(=O)NS(=O)(=O)Oc2c(C(C)C)cccc2C(C)C)c(C(C)C)c1 [CI-1011, avasimibe] | 360.3 ± 19.4 | smaller numbers of collagen fibers were observed as compared with the control group | 0.09±0.01 | the plaques consisted largely of red stained macrophage and the blue stained extracellular matrix was scanty | the macrophages were observed abundantly in whole plaques
